Several values for one entry are separate records, joined by “and”; a condition that tells them apart may be missing. Identical values can stand only once. Entries after “also recorded” stand apart in the source; their conditions may differ. Like-named read-outs stand apart in the source and are kept apart here.
Experiments:
[1] = target: T1, NS2 autoprotease (NS2-NS3-FLAG, JFH-1 isolate, genotype 2a) (Hepatitis C virus genotype 2a, UniProt Q99IB8); assay: in vitro NS2 autoprotease assay: recombinant NS2-NS3-FLAG proteolysis, NS3-FLAG product quantified by western blot; format: biochemical; conditions: 16 h
T1 construct: made in house
T1 sequence (Q99IB8 908-1210): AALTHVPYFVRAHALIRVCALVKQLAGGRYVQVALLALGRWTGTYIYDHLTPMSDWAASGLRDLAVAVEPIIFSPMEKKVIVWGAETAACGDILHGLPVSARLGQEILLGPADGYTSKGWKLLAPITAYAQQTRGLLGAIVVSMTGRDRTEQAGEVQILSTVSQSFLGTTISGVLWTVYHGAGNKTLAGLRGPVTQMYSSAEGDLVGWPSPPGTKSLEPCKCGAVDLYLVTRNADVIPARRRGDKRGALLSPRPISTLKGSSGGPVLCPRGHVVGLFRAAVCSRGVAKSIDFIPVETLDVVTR
Method: NS2-NS3-FLAG (JFH-1 isolate, genotype 2a) was purified, and proteolysis reactions were performed as previously described ([Shaw et al., 2015]). Compounds were added to reactions prior to addition of NS2-NS3-FLAG by dilution from DMSO stocks (final DMSO 0.75%). Reactions were incubated at room temperature for 16 h, terminated by addition of Laemmli buffer and the NS3-FLAG proteolysis product quantified by western blot using M2 anti-FLAG monoclonal antibody (Sigma Aldrich) and IRDye 680RD Donkey anti-Mouse (LI-COR Biosciences) on an Odyssey imager (LI-COR). NS3-FLAG was normalised to DMSO control and a non-linear regression fitted with Prism 6 (GraphPad) to determine 50% effective concentration (EC50).
Firstly, compounds were tested for the ability to block production of a substrate product of the NS2 autoprotease in an in vitro assay. This assay, using a recombinant NS2-NS3-FLAG precursor purified under denaturing conditions, measured NS2 autoprotease activity using quantitative western blot to monitor a proteolysis product (NS3-FLAG) ([Foster et al., 2010], [Shaw et al., 2015], [Tedbury and Harris, 2007]).

[2] = tested on: Huh7.5 cells; assay: cell viability by MTT in Huh7.5 cells electroporated with SGR-luc-NS2-5B(JFH-1); format: cell-based; conditions: for CC50: MTT, Huh7.5, 48 h.p.e., single experiments in duplicate, read-out: Cell viability CC50, individual experiment
Method: (§1) For cytotoxicity assay, media was removed and cells were incubated in 1 mM thiazolyl blue tetrazolium bromide (MTT) for >2 h. MTT crystals were resuspended in 100 μl DMSO and absorbance at 570 nm quantified using an infinite F50 plate reader (Tecan). Alternatively, cytotoxicity was analysed using the ATPLite kit following the manufacturer's instructions, with light emission quantified using a BMG Labtech Fluostar plate reader.
(§2) Firefly luciferase was measured as in Section 2.4. Data was normalised to DMSO controls and EC50/CC50 determined using Prism 6 (GraphPad).

[3] = as above; format: cell-based; conditions: human, Huh7.5 cells electroporated with SGR-luc-NS2-5B(JFH-1); for CC50 at 48 h: MTT, Huh7.5, 48 h.p.e., Fig. 2D, read-out: Cell viability CC50, across experimental repeats
Method: as §1, §2

[4] = tested on: Huh7.5 cells; assay: cell viability by MTT in Huh7.5 cells electroporated with Jc1-NLuc; format: cell-based; conditions: Jc1-NLuc electroporated Huh7.5, 48 h.p.e.; read-out: Cell viability, MTT CC50, individual experiment
Method: as §1
(§3) For HCVcc experiments, 5 μg of Jc1-NLuc ([Amako et al., 2015]) transcript was electroporated into Huh7.5 cells and treated with compound as described in Section 2.5. Cytotoxicity or NanoLuc (NLuc) activity was measured at 48 h incubation with compound. Cells were lysed as in Section 2.4. Following the addition of 50 μl/well Nano-Glo Luciferase Assay Substrate (Promega) light emission was recorded using a BMG Labtech Fluostar plate reader and data analysed as in Section 2.5.

[5] = as above; format: cell-based; conditions: human, Jc1-NLuc electroporated Huh7.5, 48 h.p.e.
Method: as §1, §3

[6] = cell viability by ATPLite in SGR-feo-NS2-5B(JFH-1) harbouring Huh7.5 cells; format: cell-based; conditions: human, Huh7.5 cells harbouring SGR-feo-NS2-5B(JFH-1) replicon
Method: as §1, §2

[7] = tested on: SGR-feo-NS2-5B(Con1) sub-genomic replicon, genotype 1b; assay: luciferase assay in Huh7.5 cells stably harbouring SGR-feo-NS2-5B(Con1); format: cell-based, Hepatitis C virus; conditions: 10 μM, Huh7.5 stable cells, p = 0.0006
Method: (§4) Selection and maintenance of Huh7.5 cells stably harbouring SGR-feo-NS3-5B ([Wyles et al., 2009], [Wyles et al., 2007]) or SGR-feo-NS2-5B derived from JFH-1 (genotype 2a) and Con1 (genotype 1b) has previously been reported ([Shaw et al., 2015]). Cells were maintained in Dulbecco's modified Eagle's medium (DMEM) supplemented with 10% FBS, 100 IU penicillin ml^−1, 100 μg streptomycin ml^−1, 1% non-essential amino acids and 300 μg/ml G418 in a humidified incubator at 37 °C in 5% CO2. For screening, 2 × 10^4 cells/well were seeded in a 96-well plate in the absence of G418 and compounds were added to 10 μM final concentration by dilution from DMSO stocks. At 72 h, cells were washed in PBS and lysed in 30 μl/well Passive Lysis Buffer (PLB: Promega). Luciferase activity was quantified by automated addition of 40 μl LarI reagent (Promega) and light emission recorded over 6 s using a BMG Labtech Fluostar plate reader. Statistical significance was determined using the Student's t test.
(§5) Additionally, compounds were tested for the ability to specifically perturb NS2-dependent HCV genome replication in a cell-based assay. Compounds were tested against cells stably harbouring a HCV sub-genomic replicon (SGR) comprising either NS2-5B or NS3-5B with a firefly luciferase-neomycin phosphotransferase reporter ([Shaw et al., 2015], [Wyles et al., 2009], [Wyles et al., 2007]). […]

[8] = tested on: Jc1-NLuc (genotype 2a chimeric Jc1, infectious HCV); assay: HCVcc assay: Jc1-NLuc RNA electroporated into Huh7.5 cells, NanoLuc activity; format: cell-based, Hepatitis C virus
Method: as §3

[9] = tested on: SGR-luc-NS2-5B(JFH-1) sub-genomic replicon; assay: transient replication assay: SGR-luc-NS2-5B(JFH-1) RNA electroporated into Huh7.5 cells, luciferase; format: cell-based, Hepatitis C virus
Method: For transient SGR experiments, in vitro transcripts (2 μg) of firefly luciferase-containing SGR were electroporated into 4 × 10^6 Huh7.5 cells ([Blight et al., 2002]) or Huh7 cells at 950 μF and 270 V. 2 × 10^4 cells/well were seeded in a 96 well plate. At 4 h post electroporation (h.p.e.) media was replaced with media containing compounds.
as §2

[10] = tested on: Huh7.5 cells; assay: cytotoxicity at 25 μM in Huh7.5 cells, MTT or ATPlite assay; format: cell-based; conditions: 48 h
Method: as §1

[11] = tested on: NS5A; assay: western blot for NS5A in lysates of SGR-luc-NS2-5B(JFH-1) electroporated Huh7.5 cells; format: cell-based, Hepatitis C virus; conditions: 52 h.p.e.
Method: 2 × 10^6 cells were seeded in a 10 cm dish and incubated as indicated. Cells were washed in PBS and lysed in 100 μl PLB. Clarified lysates were analysed by 15% SDS-PAGE and western blot. Anti-GAPDH (Abcam) (1:20,000) or anti-NS5A ([Macdonald et al., 2003]) (1:5000) were followed by IRDye 680RD Donkey anti-Mouse or IRDye 800CW Donkey anti-Rabbit (LI-COR BioSciences) (1:10,000) respectively. Imaging was performed using an Odyssey Imager (LI-COR).

[12] = tested on: SGR-feo-NS2-5B(JFH-1) sub-genomic replicon; assay: luciferase assay in Huh7.5 cells stably harbouring SGR-feo-NS2-5B(JFH-1); format: cell-based, Hepatitis C virus; conditions: Huh7.5, 48 h
Method: as §4, §2
Additionally, compounds were tested for the ability to specifically perturb NS2-dependent HCV genome replication in a cell-based assay. […]

[13] = tested on: SGR-feo-NS3-5B(Con1) sub-genomic replicon; assay: luciferase assay in Huh7.5 cells stably harbouring SGR-feo-NS3-5B(Con1), independent of NS2; format: cell-based, Hepatitis C virus; conditions: 10 μM, Huh7.5 stable cells
Method: as §4, §5

[14] = 10-point dose response, in vitro proteolysis, * mean ± SD of three experimental repeats, read-out: JFH1 NS2-3 EC50
[15] = Hepatitis C virus, Huh7.5, transient SGR-luc-NS2-5B(JFH-1), Huh7.5, 4-48 h.p.e., Fig. 2D, read-out: NS2-5B SGR EC50, mean ± SD across experimental repeats
[16] = transient SGR-luc-NS2-5B(JFH-1), Huh7.5, 48 h.p.e., single experiments in duplicate, read-out: NS2-5B SGR EC50, individual experiment

CC1(C(=O)N2CCC3(C=Cc4ccccc43)CC2)CCCCC1 [160–1, 1-[(1-Methylcyclohexyl)carbonyl]-spiro[indene-1,4’-piperidine]]
EC50 [1, 14]: 43 ± 0.5 µM

O=C(C1CCCCC1)N1CCC2(C=Cc3ccccc32)CC1 [160–2, 1’-[(Cyclohexyl)carbonyl]-spiro[indene-1,4’-piperidine]]
EC50 [1, 14]: 68.4 ± 5.6 µM | melting point: 134 to 135 °C

CC1(C(=O)N2CCC3(CC2)c2ccccc2[C@@H](N)[C@@H]3O)CCCCC1 [Compound 160, (2R, 3R)-3-amino-1′-[(1-methylcyclohexyl)carbonyl]-2,3,dihydrospiro[indene-1,4′-piperidine]-2-ol]
concentration at which modest cytotoxic effects were observed [2]: ≥ 95 µM | CC50 [2]: > 100 µM | viability at 300 µM ([3]; 300 μM, read-out: cell viability at maximal attainable concentration): 40% | CC50 at 48 h [3]: > 100 µM | CC50 [4]: 81.2 µM and 155 µM | CC50 at 48 h ([5]; mean ± SD of three experiments, read-out: Cell viability, MTT CC50, mean): 110 ± 40 µM | CC50 at 48 h ([5]; read-out: Cell viability, MTT CC50, individual experiment): 93 µM | CC50 at 48 h [6]: > 100 µM | luciferase activity relative to DMSO control, SGR-feo-NS2-5B(Con1) [7]: significantly reduced; also recorded: reduces luciferase activity | EC50 [1, 14]: 44.6 ± 6.2 µM | EC50 ([1]; Fig. 1B dose response, read-out: EC50, reduction of NS3-FLAG product in the in vitro NS2 autoprotease assay): 39 µM | EC50 ([8]; Hepatitis C virus, Huh7.5, read-out: Jc1-NLuc EC50, mean, Huh7.5, treated 4 to 48 h.p.e., mean ± SD of three experiments): 17.3 ± 8.1 µM | EC50 ([8]; read-out: Jc1-NLuc EC50, individual experiment, Huh7.5, 48 h.p.e., three biological replicates): 24.4 µM and 18.9 µM and 8.54 µM | luciferase activity time course relative to DMSO control ([9]; 160 at 25 μM, added 4 h.p.e., read every 4 h for 48 h): reduction in luciferase activity and a lag in detectable luciferase activity | selectivity index ([9]; CC50/EC50, transient SGR, no accurate CC50): > 5 | EC50 [9, 15]: 12 ± 6.4 µM | EC50 [9, 16]: 20.2 µM and 13.6 µM and 5.65 µM and 8.46 µM | cytotoxicity at 25 μM [10]: no observed cytotoxicity | NS5A relative to DMSO control, western blot ([11]; 160 at 25 μM): comparable reduction in NS5A | EC50 ([12]; Hepatitis C virus, read-out: ff Luc EC50, SGR-feo-NS2-5B(JFH-1) stable cells, Huh7.5, 48 h, one representative experiment): 43.4 µM | EC50 ([12]; read-out: ff Luc EC50, SGR-feo-NS2-5B(JFH-1) stable cells, one representative experiment): 43.4 µM | luciferase activity relative to DMSO control, SGR-feo-NS3-5B(Con1) [13]: no effect; also recorded: without affecting luciferase activity

CCC[C@H](NC(=O)[C@@H]1[C@H]2CCC[C@H]2CN1C(=O)[C@@H](NC(=O)[C@@H](NC(=O)c1cnccn1)C1CCCCC1)C(C)(C)C)C(=O)C(=O)NC1CC1 [Telaprevir, reference compound]
CC50 [2]: > 31.6 µM | CC50 at 48 h [3]: > 31.6 µM | EC50 ([9]; Hepatitis C virus, Huh7.5, 48 h, transient SGR-luc-NS2-5B(JFH-1), Huh7.5, 48 h.p.e., single experiments in duplicate, read-out: NS2-5B SGR EC50, individual experiment): 0.206 µM | EC50 [9, 15]: 0.176 ± 0.023 µM | luciferase activity time course ([9]; Telaprevir at 100 nM, compared with 160 at 25 μM): comparable profile | EC50 [9, 16]: 0.146 µM | NS5A relative to DMSO control, western blot ([11]; Telaprevir at 100 nM): comparable reduction in NS5A
